Source: ChEMBL document CHEMBL2396569, “6'-Methyl-5'-homoaristeromycin: a structural variation of the anti-orthopox virus candidate 5'-homoaristeromycin” (Bioorg Med Chem, 2013)
Calls of active or inactive are those of the source. The calls are words filed in the database; no cut-off is given here.

What was measured:
[1] = Cytotoxicity against african green monkey Vero 76 cells after 3 days by neutral red uptake assay; type: cell-based; conditions: chlorocebus sabaeus
[2] = system: Cowpox virus; test: Antiviral activity against Cowpox virus infected in african green monkey Vero 76 cells assessed as inhibition of virus-induced cytopathic effect after 3 days by microscopic analysis; type: functional, organism-based; conditions: 72 h
[3] = system: Vaccinia virus; test: Antiviral activity against Vaccinia virus infected in african green monkey Vero 76 cells assessed as inhibition of virus-induced cytopathic effect after 3 days by microscopic analysis; type: functional, organism-based; conditions: Orthopoxvirus vaccinia, 72 h
[4] = system: Hepatitis B virus; test: Antiviral activity against Hepatitis B virus; type: functional, organism-based
[5] = system: unidentified human coronavirus; test: Antiviral activity against Human coronavirus; type: functional
[6] = system: Human alphaherpesvirus 1; test: Antiviral activity against Herpes simplex virus 1; type: functional, organism-based
[7] = Cytotoxicity against human Daudi cells after 3 days by neutral red uptake assay; type: cell-based
[8] = system: Coxsackievirus B4; test: Antiviral activity against Human coxsackievirus B4; type: functional, organism-based
[9] = system: Punta Toro virus; test: Antiviral activity against Punta Toro virus; type: functional, organism-based
[10] = Cytotoxicity against human HEL cells after 3 days by neutral red uptake assay; type: cell-based
[11] = system: Respiratory syncytial virus; test: Antiviral activity against Respiratory syncytial virus; type: functional, organism-based
[12] = system: Vesicular stomatitis virus; test: Antiviral activity against Vesicular stomatitis virus infected in human HEL cells assessed as inhibition of virus-induced cytopathic effect after 3 days by microscopic analysis; type: functional, organism-based; conditions: 72 h
[13] = system: Yellow fever virus; test: Antiviral activity against Yellow fever virus; type: functional, organism-based
[14] = system: Reovirus sp.; test: Antiviral activity against Reovirus; type: functional, organism-based
[15] = system: Influenza B virus; test: Antiviral activity against Influenza B virus; type: functional, organism-based
[16] = system: Feline coronavirus; test: Antiviral activity against Feline coronavirus; type: functional, organism-based
[17] = system: Venezuelan equine encephalitis virus; test: Antiviral activity against Venezuelan equine encephalitis virus; type: functional, organism-based
[18] = system: Pichinde virus; test: Antiviral activity against Pichinde virus; type: functional, organism-based
[19] = system: Human respirovirus 3; test: Antiviral activity against Human parainfluenza virus 3; type: functional, organism-based
[20] = system: Measles morbillivirus; test: Antiviral activity against Measles virus; type: functional, organism-based
[21] = system: West Nile virus; test: Antiviral activity against West Nile virus; type: functional, organism-based
[22] = system: Human alphaherpesvirus 3; test: Antiviral activity against Varicella zoster virus; type: functional, organism-based
[23] = system: Human betaherpesvirus 5; test: Antiviral activity against Human cytomegalovirus; type: functional, organism-based
[24] = system: Human gammaherpesvirus 4; test: Antiviral activity against Epstein Barr virus infected in human Daudi cells assessed as inhibition of virus-induced cytopathic effect after 3 days by microscopic analysis; type: functional, organism-based; conditions: human gammaherpesvirus 4, Daudi, 72 h
[25] = system: unidentified adenovirus; test: Antiviral activity against Adenovirus; type: functional, organism-based
[26] = system: Influenza A virus; test: Antiviral activity against Influenza A virus H3N2; type: functional, organism-based
[27] = system: Hepatitis C virus; test: Antiviral activity against Hepatitis C virus; type: functional, organism-based; conditions: Hepacivirus hominis
[28] = system: Influenza A virus; test: Antiviral activity against Influenza A virus H1N1; type: functional, organism-based
[29] = system: Enterovirus; test: Antiviral activity against Rhinovirus; type: functional, organism-based
[30] = system: Sindbis virus; test: Antiviral activity against Sindbis virus; type: functional, organism-based
[31] = system: Dengue virus; test: Antiviral activity against Dengue virus; type: functional, organism-based
[32] = system: Human alphaherpesvirus 2; test: Antiviral activity against Herpes simplex virus 2; type: functional, organism-based

| SMILES | CC50 at 72 h [1] [µM] | IC50 [2] [µM] | IC50 [3] [µM] | Activity [4] | Activity [5] | Activity [6] | CC50 at 72 h [7] [µM] | Activity [8] | Activity [9] | CC50 at 72 h [10] [µM] | Activity [11] | IC50 [12] [µM] | Activity [13] | Activity [14] | Activity [15] | Activity [16] | Activity [17] | Activity [18] | Activity [19] | Activity [20] | further results |
| --- | --- | --- | --- | --- | --- | --- | --- | --- | --- | --- | --- | --- | --- | --- | --- | --- | --- | --- | --- | --- | --- |
| Nc1ncnc2c1ncn2[C@@H]1C[C@H](CCO)[C@@H](O)[C@H]1O | > 300 | 0.49 | 4.29 | – | – | – | – | – | – | – | – | – | – | – | – | – | – | – | – | – | – |
| C[C@@H](O)C[C@H]1C[C@@H](n2cnc3c(N)ncnc32)[C@H](O)[C@@H]1O (mixture of isomers) | > 300 | 223 | 24 | inactive | inactive | inactive | > 300 | inactive | inactive | > 300 | inactive | 4.8 | inactive | inactive | inactive | inactive | inactive | inactive | inactive | inactive | Activity [21]: inactive; Activity [22]: inactive; Activity [23]: inactive; IC50 [24]: 6.6 µM; Activity [25]: inactive; Activity [26]: inactive; Activity [27]: inactive; Activity [28]: inactive; Activity [29]: inactive; Activity [30]: inactive; Activity [31]: inactive; Activity [32]: inactive |
| C[C@H](O)C[C@H]1C[C@@H](n2cnc3c(N)ncnc32)[C@H](O)[C@@H]1O (mixture of isomers) | > 300 | 164 | 4.8 | inactive | inactive | inactive | > 300 | inactive | inactive | > 300 | inactive | 1.6 | inactive | inactive | inactive | inactive | inactive | inactive | inactive | inactive | Activity [21]: inactive; Activity [22]: inactive; Activity [23]: inactive; IC50 [24]: 6.4 µM; Activity [25]: inactive; Activity [26]: inactive; Activity [27]: inactive; Activity [28]: inactive; Activity [29]: inactive; Activity [30]: inactive; Activity [31]: inactive; Activity [32]: inactive |
